From patent US8834549B2, “One-step phosphorylcholine-linked polymer coating and drug loading of stent” (Abbott Laboratories, priority 2007, dated 2014)

Assay: Total drug level on stents after ETO cycles by extraction and HPLC
Type: physicochemical
Conditions: 5 stents with 1 ETO cycle, 5 stents with 3 ETO cycles
Experimental: Weighed 129 mg of ABT-578, a rapamycin derivative and 280 mg of phosphorylcholine-linked methacrylate terpolymer PC1036 and dissolved them in 10 ml of […] by shaking overnight protected from light. The solution was filtered through a 0.45 micron Teflon filter and the solution was added to the syringe reservoir of a semi-automated spray atomization gun coupled to a lathe-like device designed to hold stents, rotate them and translate them linearly in front of the spray gun. The equipment was programmed to spray enough solution in order to obtain about 10 micrograms of drug per linear mm of stent length, taking into account the losses of solution due to lack of contact with the stent as it is sprayed. After spraying, the stents were allowed to dry in air, followed by packaging them individually in glass vials sealed with an ETO permeable Tyvec membrane. The samples were sent out for ETO sterilization by one or three complete cycles.
Analysis was done of the total drug level from 5 stents that underwent 1 ETO cycle and 5 stents that underwent 3 ETO cycles using standard extraction and HPLC analysis.

stability of drug on stent to ETO cycles (total drug level, 3 cycles vs 1 cycle): stable to 3 ETO cycles
Structure (SMILES): CO[C@H]1C[C@@H]2CC[C@@H](C)[C@@](O)(O2)C(=O)C(=O)N2CCCC[C@H]2C(=O)O[C@H]([C@H](C)C[C@@H]2CC[C@H](n3cnnn3)[C@H](OC)C2)CC(=O)[C@H](C)/C=C(\C)[C@@H](O)[C@@H](OC)C(=O)[C@H](C)C[C@H](C)/C=C/C=C/C=C/1C [ABT-578]
